Converted amounts (≈) assume the structure as drawn.
Legend:
[1] = system: KB cells (human nasopharyngeal cancer cells); test: in vitro Antitumor test on KB cells (MTT); type: cell-based; conditions: 72 h, 3 days incubation
Description: in vitro Antitumor test on KB cells (human nasopharyngeal cancer cells)
KB cells suspended in an RPMI1640 medium (mfd. by Nissui Seiyaku K. K.), which contained 10% of fetal calf serum, 100 U/mi of penicillin, 100 μg/ml of streptomycin, 5×10^-5 M of mercaptoethanol and 1 mM of sodium pyruvate, were inoculated in 1.25×10^3 portions (0.1 ml) into wells of a 96-well flat-bottomed microplate and then incubated in an incubator containing 5% of carbon dioxide at 37° C. for a day.
A compound of the present invention was dissolved in dimethyl sulfoxide in a concentration of 20 mg/ml and diluted with a 10% fetal calf serum-RPMI1640 culture medium to a concentration of 100 μg/ml. By using this concentration as the highest level, threefold serial dilution was performed with a 10% fetal calf serum-RPMI1640 culture medium. Then it was added in 0.1 ml portions into the wells of the above-mentioned plate wherein the KB cells had been incubated followed by incubation in the incubator containing 5% of carbon dioxide at 37° C. for 3 days.
After incubating, an MTT (3-(4,5-dimethylthiazol-2-yl)-2,5-diphenyltetrazolium bromide) solution (3.3 mg/ml) was added in 0.05 ml portions into the wells and the incubation was effected for additional 1 hour. After sucking off the supernatant from each well, the formazane thus formed was dissolved in 0.1 ml of dimethyl sulfoxide. Then the absorbance at 540 nm was measured with a microplate reader and employed as an indication of the vital cell count. In accordance with the following equation, the inhibitory ratio was calculated and the 50% inhibitory concentration (IC50) of the test compound was determined. [formula] T: absorbance of a well containing the test commpound. C: absorbance of a well containing no test compound.

[2] = system: M5076 (mouse reticulum cell sarcoma); test: in vivo antitumor test on M5076 transplanted in BDF1 mice; conditions: intraperitoneal, 4 times every other day from 10th day
Source text: in vivo antitumor test on M5076 (mouse reticulum cell sarcoma)
1×10^6 M5076 cells were subcutaneously transplanted into the lateral parts of BDF1 mice (aged 6 to 9 weeks, female). A compound of the present invention was suspended in physiological saline containing 3.5% of dimethyl sulfoxide and 6.5% of Tween 80 and a given amount of the obtained suspension was intraperitoneally administered to the animals 4 times from the 10th day after the transplantation once a day every other day. The control group comprised 10 to 12 animals, while the test group comprised 5 or 6 animals.
On the 21st day after the transplantation, tumors were taken out and weighed. Then the tumor multiplication inhibitory ratio of each test group based on the control group was determined in accordance with the following equation. [formula] T: average tumor weight of the test group. C: average tumor weight of the control group.

Structure (SMILES) | IC50 [1] [µg/mL] | other results
COc1ccc(S(=O)(=O)Nc2cccc3c2Nc2c(Cl)cc(F)c(O)c2CN3)cc1 [Example 46, N-(4-Chloro-10,11-dihvdro-2-fluoro-1-hvdroxy-5-dibenzo(b,e)(1,4)diazepin-6-yl)-4-methoxybenzene-sulfonamide] | 0.25 (≈ 0.556 µM) | –
COc1ccc(S(=O)(=O)Nc2cccc3c2Nc2ccc(OCCCO)cc2CN3)cc1 [Example 44, N-(10,11-Dihydro-2-(3-hydroxypropyloxy)-5H-dibenzo-(b,e)(1,4)(diazepin-6-yl)4-metbhoxybenzenesulfonamide] | 0.077 (≈ 0.169 µM) | –
COc1ccc(S(=O)(=O)Nc2cccc3c2Nc2ccccc2CC3)cc1 [Example 6, N-(10,11-Dihydro-5H-dibenz(b,f)azepin-4-yl)-4-methoxybenzenesulfonamide] | 0.09 (≈ 0.237 µM) | –
COc1ccc(S(=O)(=O)Nc2cccc3c2Nc2ccccc2O3)cc1 [Example 5, 4-Methoxy-N-(10H-phenoxazin-1-yl)benzenesulfonamide] | 0.08 (≈ 0.217 µM) | –
COc1ccc(S(=O)(=O)Nc2cccc3c2Nc2ccccc2CO3)cc1 [Example 17, N-(5,11-Dihydrpdibenz(b,e)(1,4)oxazepin-6-yl)-4-methoxybenzenesulfonamide] | 0.03 (≈ 0.0784 µM) | Inhibitory ratio (tumor weight, 21st day) ([2]; 100 mg/kg/day): 81%; Survival ratio on 21st day ([2]; 100 mg/kg/day): 100%
COc1ccc(S(=O)(=O)Nc2cccc3c2Nc2cc(F)c(F)cc2S3)cc1 [Example 28, N-(7,8-Difluoro-10-pbenothiazin-1-yl)-4-methoxy-benenesulfonamide] | 0.069 (≈ 0.164 µM) | Inhibitory ratio (tumor weight, 21st day) ([2]; 50 mg/kg/day): 82%; Survival ratio on 21st day ([2]; 50 mg/kg/day): 100%
COc1ccc(S(=O)(=O)Nc2cccc3c2Nc2ccc(F)cc2CN3)cc1 [Example 32, N-(10,11-Dihydro-2-fluoro-5dibenzo(b,e) (1,4)-diazepin-6-yl)-4-methoxybenzenesulfonamide] | 0.082 (≈ 0.205 µM) | Inhibitory ratio (tumor weight, 21st day) ([2]; 25 mg/kg/day): 84%; Survival ratio on 21st day ([2]; 25 mg/kg/day): 100%
COc1ccc(S(=O)(=O)Nc2cccc3c2Nc2ccc(C#N)cc2CN3)cc1 [Example 48, N-(2-Cyano-10,11-dihydro-5H-dibenzo(b,e)(1,4)diazepin-6-yl)-4-methoxybenzenesulfonamide] | 0.028 (≈ 0.0689 µM) | –
COc1ccc(S(=O)(=O)Nc2cccc3c2Nc2ccc(F)c(O)c2CO3)cc1 [Example 45, N-(5,11-Dihydro-2-fluoro-1-hydroxydibenz(b,e)-(1,4)oxazepin-6-yl)-4-methoxybenzenesulfonamide] | 0.016 (≈ 0.0384 µM) | –
COc1ccc(S(=O)(=O)Nc2cccc3c2Nc2ccc(F)cc2NC3)cc1 [Example 49, N-(10,11-Dihydro-8-fluoro-5H-dibenzo(b,e)(1,4)-diazepin-4-yl)-4-methoxybenzenesulfonamide] | 0.08 (≈ 0.2 µM) | –
COc1ccc(S(=O)(=O)Nc2cccc3c2Nc2ccccc2OC3)cc1 [Example 40, N-(5,11-Dihydrodibenz(b,e)(1,4)oxalelpin-4-yl)-4-methoxybenzenesulfonamide] | 0.032 (≈ 0.0837 µM) | –
COc1ccc(S(=O)(=O)Nc2cccc3c2Nc2cncnc2S3)cc1 [Example 35, 4-Melthoxy-N-(5H-pyrimido(4,5-b)(1,4)benzothizin-6-yl)benzenesulfonamide] | 0.25 (≈ 0.647 µM) | –
CCN1Cc2ccccc2Nc2c(NS(=O)(=O)c3ccc(OC)cc3)cccc21 [Example 41, N-(10,11-Dihydro-10-ethyl-5H-dihenzo(b,e)(1,4)-diazepin-6-yl)-4-meltoxybenzenesulfonamnide] | 0.28 (≈ 0.684 µM) | –
COc1ccc(S(=O)(=O)Nc2cccc3c2Nc2ccc(O)cc2CO3)cc1 [Example 30, N-(5,11-Dibydro-2-bydroxydihenz(b,e)(1,4)oxazepin-6-yl)-4-methoxybenzensulfonamide] | 0.028 (≈ 0.0703 µM) | Inhibitory ratio (tumor weight, 21st day) ([2]; 100 mg/kg/day): 82%; Survival ratio on 21st day ([2]; 100 mg/kg/day): 100%
COc1ccc(S(=O)(=O)Nc2cccc3c2Nc2ccc(F)c(O)c2CN3)cc1 [Example 47, N-(10,11-Dihydro-2-fluoro-1-hydroxy-5H-dibenzo(b,e)-(1,4)diazepin-6-yl)-4-methoxybenzenesulfonamide] | 0.078 (≈ 0.188 µM) | –
COc1ccc(S(=O)(=O)Nc2cccc3c2Nc2ccc(C)cc2CN3)cc1 [Example 31, N-10,11-Dihydro-2-methyl-5H-dihenzn(b,e)(1,4)-diazepin-6-yl)-4-methoxyhenenesulfonamide] | 0.27 (≈ 0.683 µM) | –
COc1ccc(S(=O)(=O)Nc2cccc3c2Nc2ccccc2C=C3)cc1 [Example 9, N-(5H-Dibenz[b,f]azepin-4-yl)-4-methoxybenzene-sulfonamilde] | 0.23 (≈ 0.608 µM) | –
Cc1ccc(S(=O)(=O)Nc2cccc3c2Nc2ccc(O)cc2CO3)s1 [Example 42, N-(5,11-Dihydro-2-hydroxydihenz(b,e)(1,4)oxazepin-6-yl)-5-methyl-2-thiopbhenesulfonamide] | 0.13 (≈ 0.335 µM) | –

Structure (SMILES) | IC50 [1] [µg/mL] | other results
COc1ccc(S(=O)(=O)Nc2cccc3c2[nH]c2ccccc23)cc1 [Example 2, N-(9H-Carbazol-1-yl)-4-methoxybenzenesulfornamide] | 0.1 (≈ 0.284 µM) | –
COc1ccc(S(=O)(=O)Nc2cccc3c2Nc2ncccc2O3)cc1 [Example 15, 4-Methoxy-N-(10H-pyrido(3,2-b)(1,4)benzoxazin-9-yl)-benzenesulfonamide] | 0.15 (≈ 0.406 µM) | –
COc1ccc(S(=O)(=O)Nc2cccc3cc4ccccc4nc23)cc1 [Example 14, N-(4-Acridinyl)-4-methoxybenzenesulfonamide] | 0.026 (≈ 0.0713 µM) | –
COc1ccc(S(=O)(=O)Nc2cc(F)cc3c2Nc2ccc(O)cc2CO3)cc1 [Example 39, N-(5,11-Dihydro-8-fluoro-2-hdroxydihenz(b,e)(1,4)-oxazepin-6-yl)-4-methoxybenrzenesilfonamide] | 0.26 (≈ 0.624 µM) | –
COc1ccc(S(=O)(=O)Nc2cccc3c2Nc2ccc(O)cc2O3)cc1 [Example 22, N-(7-Hvdroxy-10H-phenoxain-1-yl)-4-methoxybenzene-sulfonamide] | 0.17 (≈ 0.442 µM) | –
COc1ccc(S(=O)(=O)Nc2cccc3c2NC(=O)c2ccccc2O3)cc1 [Example 12, N-(Dibenrz(b,f)(1,4)oxazepin-11(10H)-on-9-yl)-4-methoxybenzenelfonamide] | 0.25 (≈ 0.631 µM) | –
COc1ccc(S(=O)(=O)Nc2cccc3c2Nc2cccnc2O3)cc1 [Example 16, 4-Methoxy-N-(5H-pyrido(2,3-b)(1,4)benzoxazin-6-yl)-benzenesulfonamide] | 0.022 (≈ 0.0596 µM) | –
COc1ccc(S(=O)(=O)Nc2cccc3c2N(C)c2ccccc2O3)cc1 [Example 29, 4-Methoxy-N-(10-methyl-10H-phenoxazin-1-yl)benzene-sulfonamide] | 0.11 (≈ 0.288 µM) | –
COc1ccc(S(=O)(=O)Nc2cccc3c(=O)c4ccccc4[nH]c23)cc1 [Example 4, N-(9(10H)-Acridinon-4-yl)-4-methoxyhenzenesulfonamide] | 0.17 (≈ 0.447 µM) | –
COc1ccc(S(=O)(=O)Nc2cccc3c(=O)c4cc(O)ccc4[nH]c23)cc1 [Example 20, N-(7-Hydroxy-9(10H)-acridinon-4-yl)-4-methoxybenzene-sulfonamide] | 0.11 (≈ 0.277 µM) | –
COc1ccc(S(=O)(=O)Nc2cccc3sc4cc(=O)ccc-4nc23)cc1 [Example 25, 4-Methoxy-N-(3-phenothiazin-3-on-9-yl)benzene-sulfonamide] | 0.016 (≈ 0.0402 µM) | –
COc1ccc(S(=O)(=O)Nc2cccc3oc4cc(=O)ccc-4nc23)cc1 [Example 24, 4-Methoxy-N-(3H-phenoxazin-3-on-9-yl)benzene-sulfonamide] | 0.0061 (≈ 0.016 µM) | –
COc1ccc(S(=O)(=O)Nc2cccc3c2Nc2ccc(NC(C)=O)cc2CN3)cc1 [Example 43, N-(2-Acetylamino-10,11-dibydro-5H-dibhenz(b,e)(1,4)-diazepin-6-yl)-4-methoxybenzenesulfonamide] | 0.22 (≈ 0.502 µM) | –
Cc1ccc(S(=O)(=O)Nc2cccc3c2Nc2ccc(O)cc2CO3)cc1 [Example 38, N-(5,11-Ditiydro-2-hydroxydihenz(b,e)(1,4)oxazepin-6-yl)-4-methylbenzenesulfonamide] | 0.047 (≈ 0.123 µM) | –
Nc1ccc(S(=O)(=O)Nc2cccc3c2Nc2ccccc2S3)cc1 [Example 34, 4-Amino-N-(10-phenothiazin-1-yl)benzenesulfonamide] | 0.25 (≈ 0.677 µM) | –
COc1ccc(S(=O)(=O)Nc2cccc3c2Nc2ccc(CO)cc2O3)cc1 [Example 33, N-(7-Hydroxymethyl-10-phenoxazin-1-yl)-4-methoxy-benzenesulfonamide] | 0.043 (≈ 0.108 µM) | –
COc1ccc(S(=O)(=O)Nc2cccc3c2Nc2ccccc2CS3)cc1 [Example 26, N-(5,11-Dihydrobenzo(b,e)(1,4)thiazepin-6-yl)-4-metboxybenzenesulfonamide] | 0.15 (≈ 0.376 µM) | –

— US5834462A, “Tricyclic heterocyclic sulfonamide and sulfonic ester derivatives” (Eisai Co., Ltd., priority 1993, dated 1998)
